According to patent publication US20240018115A1, “ALLOSTERIC CHROMENONE INHIBITORS OF PHOSPHOINOSITIDE 3-KINASE (PI3K) FOR THE TREATMENT OF DISEASE” (Petra Pharma Corporation, priority 2022, published 2024):

Target: T1, PI3K-Alpha kinase H1047R mutant (Homo sapiens, UniProt P42336, H1047R)
T1 construct: host or cells: MDA-MB-453
Test: PI3K-Alpha Kinase (PIK3CA) Activity, H1047R Mutant In Vitro Cell Based Assay (MDA-MB-453 cells, AlphaLisa SureFire Ultra)
Details: 0% FBS, 3 hours treatment, relative IC50
Protocol: PI3K-Alpha Kinase (PIK3CA) Activity, H1047R Mutant In Vitro Cell Based Assay and Determining IC50 Values for Inhibitors
The MDA-MB-453 (ATCC-HTB-131) cell line was obtained from the American Type Culture Collection (Manassas, VA). Cells were maintained in Dulbecco's Modified Eagle Media (DMEM, Gibco 11965-092) supplemented with 10% Fetal Bovine Serum, heat inactivated (FBS HI, Gibco 10082-147), 1× non-essential amino acids (NEAA, Gibco 11140-050), and 1 mM sodium pyruvate (Gibco 11360-070). Cultures were maintained in a humidified incubator at 37° C. under 5% CO2/95% air.
For compound testing in 0% FBS, MDA-MB-453 cells were seeded at a density of 1.5×10^4 cells per well in white 384-well plates in 20 μl of Minimum Essential Media (MEM) assay media with 1×NEAA, 1 mM sodium pyruvate, and 1 μg/mL human insulin (Sigma I9278). Compounds dissolved in 10 mM stock solutions in DMSO were serially diluted 1:3 in DMSO to generate a 10-point dilution series and plated using an acoustic liquid handler system (Echo 550 Series Liquid Handler, Labcyte). A 5× intermediate compound dilution plate in MEM with 1×NEAA and 1 mM sodium pyruvate (150 μM starting compound concentration in 1.5% DMSO) was then prepared. Five μl of the intermediate serially diluted compounds were added to the cell plate to final concentrations ranging from […] in 0.3% DMSO. 0.3% DMSO alone was used to establish the maximum (MAX) signal and GDC-0032 at a final concentration of 1 μM was used as a reference compound for the minimum (MIN) signal. After 3 hours treatment, the medium was removed, and the cells lysed in 10 μL of 1× SureFire Lysis buffer with shaking for 10 minutes at room temperature. The Acceptor Mix (Reaction Buffer 1+Reaction Buffer 2+Activation Buffer+SureFire Ultra Acceptor Beads) was prepared by diluting Activation buffer 25-fold in combined Reaction Buffer 1 and Reaction Buffer 2. The Acceptor beads were diluted 50-fold in the combined Reaction Buffers. Five μL of Acceptor Mix was added to each well, the plate was sealed and covered with foil and incubated for 1 hour at room temperature. The Donor Mix (dilution buffer+SureFire Ultra Donor Beads) was prepared by diluting Donor Beads 50-fold in dilution buffer. Five μL of the Donor Mix was added to each well and the plate sealed and covered with foil and incubated for 1 hour at room temperature in the dark. The plates were read on a Neo2 plate reader instrument from Biotek using standard AlphaLisa settings. Compounds were tested in duplicate and the average % inhibition at each compound concentration was used to generate a single dose response curve. The data were processed using the Genedata-Screener tool. Relative IC50 values were determined using luminescence units by calculating percent inhibition with respect to the in-plate “MIN” (GDC-0032 reference control) and “MAX” (DMSO) controls. The data was analyzed using a 4-parameter nonlinear logistic equation (four-parameter logistic concentration-response curve):
Y=bottom+[(top−bottom)/1+(X/IC50)slope]
where Y=% inhibition, X=concentration of inhibitor, bottom=minimum value of y attained by curve-fit, top=maximum value of y attained by curve-fit and slope=steepness of curve at the IC50.
% Inhibition=[(signal at X−median Min)/(median Max−median Min)]×100
IC50: concentration of compound that reduces a given response (ligand binding, enzyme response) by 50%. Relative IC50: concentration giving half the compound's maximum response.

T1 sequence (P42336 whole entry H1047R): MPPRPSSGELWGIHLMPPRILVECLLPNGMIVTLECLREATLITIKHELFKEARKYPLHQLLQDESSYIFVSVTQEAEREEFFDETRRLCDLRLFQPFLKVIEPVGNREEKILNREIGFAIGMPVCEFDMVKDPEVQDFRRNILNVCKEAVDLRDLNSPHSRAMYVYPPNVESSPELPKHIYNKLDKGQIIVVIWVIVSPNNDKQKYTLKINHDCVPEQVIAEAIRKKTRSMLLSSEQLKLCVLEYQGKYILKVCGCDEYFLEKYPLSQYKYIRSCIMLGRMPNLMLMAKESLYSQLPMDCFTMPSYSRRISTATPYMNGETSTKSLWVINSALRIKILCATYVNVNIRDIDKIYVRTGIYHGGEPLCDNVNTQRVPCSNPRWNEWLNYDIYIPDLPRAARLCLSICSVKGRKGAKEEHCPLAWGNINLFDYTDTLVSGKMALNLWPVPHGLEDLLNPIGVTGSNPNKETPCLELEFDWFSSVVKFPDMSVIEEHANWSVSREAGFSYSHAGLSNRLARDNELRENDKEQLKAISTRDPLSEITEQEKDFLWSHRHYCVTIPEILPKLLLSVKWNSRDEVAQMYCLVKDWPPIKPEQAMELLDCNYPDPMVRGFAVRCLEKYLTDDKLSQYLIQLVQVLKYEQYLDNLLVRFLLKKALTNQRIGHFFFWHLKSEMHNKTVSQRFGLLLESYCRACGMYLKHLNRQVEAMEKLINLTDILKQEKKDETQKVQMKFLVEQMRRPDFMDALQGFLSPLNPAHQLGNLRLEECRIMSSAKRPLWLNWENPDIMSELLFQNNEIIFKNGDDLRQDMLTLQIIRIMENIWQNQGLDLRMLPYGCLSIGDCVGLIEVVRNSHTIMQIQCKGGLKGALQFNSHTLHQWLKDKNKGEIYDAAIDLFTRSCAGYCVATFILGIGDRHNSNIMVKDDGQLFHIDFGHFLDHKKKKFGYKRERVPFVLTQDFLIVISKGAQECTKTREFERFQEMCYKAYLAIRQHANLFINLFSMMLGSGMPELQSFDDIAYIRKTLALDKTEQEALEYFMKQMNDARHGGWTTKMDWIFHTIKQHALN
T1 sequence (P27986 whole entry partner): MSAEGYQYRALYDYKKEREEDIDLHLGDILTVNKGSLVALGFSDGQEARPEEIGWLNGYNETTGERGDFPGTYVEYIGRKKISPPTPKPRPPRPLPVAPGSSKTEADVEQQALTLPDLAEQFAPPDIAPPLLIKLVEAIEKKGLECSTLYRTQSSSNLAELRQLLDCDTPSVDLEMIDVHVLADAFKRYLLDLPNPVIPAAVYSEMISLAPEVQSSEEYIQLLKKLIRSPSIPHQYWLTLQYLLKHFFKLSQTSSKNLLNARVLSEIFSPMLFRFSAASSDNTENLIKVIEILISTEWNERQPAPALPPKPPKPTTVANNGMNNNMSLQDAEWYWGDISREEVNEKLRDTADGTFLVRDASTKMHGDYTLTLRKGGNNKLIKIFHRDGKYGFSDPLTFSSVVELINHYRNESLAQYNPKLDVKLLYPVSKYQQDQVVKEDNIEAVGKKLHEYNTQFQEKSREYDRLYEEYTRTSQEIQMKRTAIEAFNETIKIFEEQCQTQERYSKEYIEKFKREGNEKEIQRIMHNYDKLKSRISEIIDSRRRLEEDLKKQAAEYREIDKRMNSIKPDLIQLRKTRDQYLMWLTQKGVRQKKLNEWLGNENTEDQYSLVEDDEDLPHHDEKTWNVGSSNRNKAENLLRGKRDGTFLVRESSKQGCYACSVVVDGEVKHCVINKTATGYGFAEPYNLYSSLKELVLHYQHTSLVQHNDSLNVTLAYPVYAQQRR

Compound	IC50
Cc1cc([C@@H](C)Nc2cccnc2C(=O)N[C@@H]2CCOC2)c2oc(-c3ccccc3)c(C)c(=O)c2c1 [Example 178A, 3-[[(1R)-1-(3,6-Dimethyl-4-oxo-2-phenyl-chromen-8-yl)ethyl]amino]-N-[(3R)-tetrahydrofuran-3-yl]pyridine-2-carboxamide]	< 0.5 µM
Cc1cc([C@@H](C)Nc2ccccc2CO)c2oc(-c3cccnc3)c(C)c(=O)c2c1 [Example 224C, 8-[(1R)-1-[2-(Hydroxymethyl)anilino]ethyl]-3,6-dimethyl-2-(3-pyridyl)chromen-4-one]	< 0.5 µM
